Test results reported in ChEMBL document CHEMBL1201862, “PubChem BioAssay data set” (2004).
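Exposure lasted 48 hours, with cells grown in 96-well plates and compounds tested at five concentrations. The concentration for 50% growth inhibition is given as GI50.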 The source made the active and inactive calls. Rule as the data show it: active = GI50 up to about 1.1 µM and inactive = higher.

Experiments:
Assay in all cases: NCI anticancer screen, dose series, 48 h
[1] = test system: CCRF-CEM
[2] = test system: UACC-62
[3] = test system: 786-0
[4] = test system: MDA-MB-435
[5] = test system: BT-549
[6] = test system: CAKI-1
[7] = test system: OVCAR-4
[8] = test system: KM12
[9] = test system: OVCAR-3
[10] = test system: NCI/ADR-RES
[11] = test system: HOP-92
[12] = test system: A549
[13] = test system: UACC-257
[14] = test system: IGROV-1
[15] = test system: M14
[16] = test system: MDA-N
[17] = test system: HCC 2998
[18] = test system: SK-OV-3
[19] = test system: SW-620
[20] = test system: SR

Row | SMILES | GI50 [1] | GI50 [2] | GI50 [3] | GI50 [4] | GI50 [5] | GI50 [6] | GI50 [7] | GI50 [8] | GI50 [9] | GI50 [10] | GI50 [11] | GI50 [12] | GI50 [13] | GI50 [14] | GI50 [15] | GI50 [16] | GI50 [17] | GI50 [18] | GI50 [19] | GI50 [20]
1 | COC(=O)C1CCC(=S)N1C(=O)c1ccccc1 (stereo not drawn) | > 100 µM (inactive) | > 100 µM (inactive) | > 100 µM (inactive) | > 100 µM (inactive) | > 100 µM (inactive) | > 100 µM (inactive) | > 100 µM (inactive) | > 100 µM (inactive) | > 100 µM (inactive) | > 100 µM (inactive) | > 100 µM (inactive) | > 100 µM (inactive) | > 100 µM (inactive) | > 100 µM (inactive) | > 100 µM (inactive) | > 100 µM (inactive) | 77.6 µM (inactive) | > 100 µM (inactive) |  | 
2 | Cc1ccccc1/N=N/c1cc(C)c(/N=N/c2c(O)ccc3ccccc23)cc1C | > 100 µM (inactive) | > 100 µM (inactive) | > 100 µM (inactive) | > 100 µM (inactive) | > 100 µM (inactive) | > 100 µM (inactive) | > 100 µM (inactive) | > 100 µM (inactive) | > 100 µM (inactive) | > 100 µM (inactive) | > 100 µM (inactive) | > 100 µM (inactive) | > 100 µM (inactive) | > 100 µM (inactive) | > 100 µM (inactive) | > 100 µM (inactive) |  | > 100 µM (inactive) | > 100 µM (inactive) | 
3 | CC/C(Cl)=N\OC(=O)Nc1ccccc1OC(F)(F)F | 1.75 µM (inactive) | 17 µM (inactive) | 10.1 µM (inactive) | 19.4 µM (inactive) | 3.11 µM (inactive) | 1.89 µM (inactive) | 19.8 µM (inactive) | 20.6 µM (inactive) | 8.22 µM (inactive) | 14.9 µM (inactive) | 2.39 µM (inactive) | 22.6 µM (inactive) | 17.2 µM (inactive) | 15.8 µM (inactive) | 6.9 µM (inactive) | 8.47 µM (inactive) | 18.6 µM (inactive) | 20.2 µM (inactive) | 2.52 µM (inactive) | 
4 | CC(C)CCNC(=O)C(CC(C)C)NC(=O)[C@H]1O[C@@H]1C(=O)O (stereo partly drawn) | > 100 µM (inactive) | > 100 µM (inactive) | > 100 µM (inactive) | > 100 µM (inactive) | > 100 µM (inactive) | > 100 µM (inactive) | > 100 µM (inactive) | > 100 µM (inactive) | > 100 µM (inactive) | > 100 µM (inactive) | > 100 µM (inactive) | > 100 µM (inactive) | > 100 µM (inactive) | > 100 µM (inactive) | > 100 µM (inactive) | > 100 µM (inactive) | > 100 µM (inactive) | > 100 µM (inactive) | > 100 µM (inactive) | 
5 | Cc1cc(S(=O)(=O)N/C(=N/N)NCCc2ccccc2)c(S)cc1Cl | 25.1 µM (inactive) | 18.1 µM (inactive) | 30.5 µM (inactive) | 22 µM (inactive) | 15.4 µM (inactive) | 26.4 µM (inactive) | 22.9 µM (inactive) | 23.4 µM (inactive) | 24.5 µM (inactive) | 22.9 µM (inactive) |  | 36.1 µM (inactive) | 44.4 µM (inactive) | 36 µM (inactive) | 24.1 µM (inactive) | > 10 µM (inactive) | 23.2 µM (inactive) | 23.3 µM (inactive) | 24 µM (inactive) | 29.9 µM (inactive)
6 | O=C1CCCCCCCCCCC1CN1CCCC1 (stereo not drawn) | 27.4 µM (inactive) | 17.1 µM (inactive) | 20.4 µM (inactive) | 36.1 µM (inactive) | 31.4 µM (inactive) | 43.1 µM (inactive) |  | 25.6 µM (inactive) | 67.5 µM (inactive) | 40 µM (inactive) |  | 43.6 µM (inactive) | 20 µM (inactive) | 46 µM (inactive) | 20.1 µM (inactive) | 33 µM (inactive) | 20 µM (inactive) | 50.9 µM (inactive) | 39.3 µM (inactive) | 
7 | Cc1ccccc1NC(=O)Cc1csc2[n+]1C(=O)/C(=C/c1ccc([N+](=O)[O-])cc1)S2 |  |  | 58.9 µM (inactive) | 30.3 µM (inactive) | 13 µM (inactive) | 25.5 µM (inactive) | 12.1 µM (inactive) | 23.7 µM (inactive) | 31.2 µM (inactive) | 42.4 µM (inactive) | 19.5 µM (inactive) | 32 µM (inactive) | 37.1 µM (inactive) | 25.7 µM (inactive) | 32.2 µM (inactive) | 37.2 µM (inactive) | 28.1 µM (inactive) | > 100 µM (inactive) | 33.6 µM (inactive) | 
8 | O=Cc1c(C(=O)O)[nH]c(=O)[nH]c1=O | > 100 µM (inactive) | > 100 µM (inactive) | > 100 µM (inactive) | > 100 µM (inactive) | > 100 µM (inactive) | > 100 µM (inactive) |  | > 100 µM (inactive) | > 100 µM (inactive) | > 100 µM (inactive) |  | > 100 µM (inactive) | > 100 µM (inactive) | > 100 µM (inactive) | > 100 µM (inactive) | > 100 µM (inactive) |  | > 100 µM (inactive) | > 100 µM (inactive) | > 10 µM (inactive)
9 | Cc1cc(C)n(C2=NS(=O)(=O)c3ccccc3N2C)n1 | > 100 µM (inactive) | > 100 µM (inactive) | > 100 µM (inactive) | > 100 µM (inactive) | > 100 µM (inactive) | > 100 µM (inactive) | > 100 µM (inactive) | > 100 µM (inactive) | > 100 µM (inactive) | > 100 µM (inactive) | > 100 µM (inactive) | > 100 µM (inactive) | > 100 µM (inactive) | > 100 µM (inactive) | > 100 µM (inactive) | > 100 µM (inactive) | > 100 µM (inactive) | > 100 µM (inactive) | > 100 µM (inactive) | 
10 | CCN1CCC(O)(/C=C/c2ccc(Cl)c(Cl)c2)C(C(=O)/C=C/c2ccc(Cl)c(Cl)c2)C1 (stereo not drawn) | 0.306 µM (active) | 0.973 µM (active) | 1.41 µM (inactive) | 0.877 µM (active) | 0.733 µM (active) | 1.82 µM (inactive) | 0.632 µM (active) | 0.713 µM (active) | 0.764 µM (active) | 0.843 µM (active) | 0.621 µM (active) | 0.673 µM (active) | 0.986 µM (active) | 0.706 µM (active) | 0.733 µM (active) | 1.55 µM (inactive) | 1.71 µM (inactive) | 1.72 µM (inactive) | 0.466 µM (active) | 
11 | COc1ccc(C(=O)C(Br)C(Br)C(=O)O)cc1 (stereo not drawn) |  | 47.9 µM (inactive) | 31.8 µM (inactive) | 36.1 µM (inactive) | 26.5 µM (inactive) | 38.3 µM (inactive) | 53 µM (inactive) | 52.1 µM (inactive) | 28.3 µM (inactive) | 30.1 µM (inactive) | > 100 µM (inactive) | 66.5 µM (inactive) | > 100 µM (inactive) | 51.1 µM (inactive) | 54.1 µM (inactive) | 38.1 µM (inactive) |  | 33.7 µM (inactive) | 23.3 µM (inactive) | 
12 | O=C1CCC(=O)N1n1c(Cc2ccccc2)n[nH]c1=O | > 100 µM (inactive) | > 100 µM (inactive) | > 100 µM (inactive) | > 100 µM (inactive) | > 100 µM (inactive) | > 100 µM (inactive) | > 100 µM (inactive) | 7.29 µM (inactive) | > 100 µM (inactive) | > 100 µM (inactive) |  | > 100 µM (inactive) | > 100 µM (inactive) | > 100 µM (inactive) | > 100 µM (inactive) | > 100 µM (inactive) | > 100 µM (inactive) | > 100 µM (inactive) | > 100 µM (inactive) | > 100 µM (inactive)
13 | C=CCNC(=O)N1CC(C)C(=O)Nc2ccccc21 (stereo not drawn) | > 100 µM (inactive) |  | > 100 µM (inactive) | > 100 µM (inactive) | > 100 µM (inactive) | > 100 µM (inactive) | > 100 µM (inactive) | > 100 µM (inactive) | > 100 µM (inactive) |  | > 100 µM (inactive) | > 100 µM (inactive) | > 100 µM (inactive) | > 100 µM (inactive) | > 100 µM (inactive) | > 100 µM (inactive) | > 100 µM (inactive) | > 100 µM (inactive) | > 100 µM (inactive) | > 100 µM (inactive)
14 | Cc1ccc(-c2cc(-c3ccc(Cl)cc3)nc(/N=C3\C(=O)N(CN4CCCCC4)c4ccc(Cl)cc43)n2)cc1 | 36.3 µM (inactive) | 23 µM (inactive) | 18.9 µM (inactive) | 20.3 µM (inactive) | 22.4 µM (inactive) | 18.1 µM (inactive) | 31.5 µM (inactive) | 15.8 µM (inactive) | 35.5 µM (inactive) | 22.1 µM (inactive) | 15.6 µM (inactive) | 16.4 µM (inactive) | 22.9 µM (inactive) | 10.5 µM (inactive) | 15.6 µM (inactive) | 21.3 µM (inactive) | 14.9 µM (inactive) | 31.8 µM (inactive) | 24.3 µM (inactive) | 
15 | CCCCc1c(O)nc(Nc2nc3ccccc3[nH]2)[nH]c1=O | > 100 µM (inactive) | > 100 µM (inactive) | > 100 µM (inactive) | > 100 µM (inactive) | > 100 µM (inactive) | > 100 µM (inactive) | > 100 µM (inactive) | > 100 µM (inactive) | > 100 µM (inactive) | > 100 µM (inactive) |  | > 100 µM (inactive) | > 100 µM (inactive) | > 100 µM (inactive) | > 100 µM (inactive) | > 100 µM (inactive) |  | > 100 µM (inactive) | > 100 µM (inactive) | > 100 µM (inactive)
